Source: the supplement of paper PMC4862054

What was measured:
Assay in all cases: normalised response (% of control), CellTox Green; higher = less cell death (100 = DMSO, 0 = benzethonium chloride kill control)
Details in all cases: incubation time: 72 h
BT-474 = system: BT-474
Method in brief: (§1)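 Breast cancer cell lines were exposed for 72 h in 384-well plates to compound at 5 concentrations, 10-fold apart, covering a 10,000-fold range fixed for each compound. Plates were read for CellTox Green fluorescence and CellTiter-Glo luminescence and normalised to 0.1 % DMSO (100) and a positive kill control (0). Each value is the normalised signal at one concentration of the series.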

BT-549 = system: BT-549
Method in brief: as §1

DU-4475 = system: DU-4475
Method in brief: as §1

HCC1599 = system: HCC1599
Method in brief: as §1

MDA-MB-231 = system: MDA-MB-231
Method in brief: as §1

MDA-MB-436 = system: MDA-MB-436
Method in brief: as §1

MDA-MB-453 = system: MDA-MB-453
Method in brief: as §1

MDA-MB-468 = system: MDA-MB-468
Method in brief: as §1

MFM-223 = system: MFM-223
Method in brief: as §1

Structure (SMILES) | normalised response (BT-474) | normalised response (BT-549) | normalised response (DU-4475) | normalised response (HCC1599) | normalised response (MDA-MB-231) | normalised response (MDA-MB-436) | normalised response (MDA-MB-453) | normalised response (MDA-MB-468) | normalised response (MFM-223)
COc1ccc(S(=O)(=O)Nc2cccnc2Nc2ccc(O)cc2)cc1 [ABT-751] (1000 nM) | 86.1% | 40.4% | 93.9% | 87.8% | 53.4% | 57.2% | 102% | -16.6% | 83.6%
COc1ccc(S(=O)(=O)Nc2cccnc2Nc2ccc(O)cc2)cc1 [ABT-751] (10000 nM) | 67.4% | 77.8% | 107% | 74.5% | 46.2% | 63.9% | 97% | 112% | 35.7%
Cc1cc(Nc2nc(N[C@@H](C)c3ncc(F)cn3)ncc2Cl)[nH]n1 [AZD1480] (100 nM) | 71.6% | 95.4% | 97.6% | 93.8% | 98.9% | 101% | 106% | 128% | 100%
Cc1cc(Nc2nc(N[C@@H](C)c3ncc(F)cn3)ncc2Cl)[nH]n1 [AZD1480] (1000 nM) | 95.3% | 88.9% | 98.2% | 99.3% | 76.7% | 105% | 105% | 84.2% | 41.5%
CNC(=O)c1ccccc1Sc1ccc2c(/C=C/c3ccccn3)n[nH]c2c1 [Axitinib] (1000 nM) | 103% | 146% | 104% | 118% | 121% | 84.9% | 108% | 129% | 66.7%
CNC(=O)c1ccccc1Sc1ccc2c(/C=C/c3ccccn3)n[nH]c2c1 [Axitinib] (10000 nM) | 99.4% | 90.9% | 108% | 118% | 96.8% | 89% | 111% | 156% | 97.7%
CC(O)(CS(=O)(=O)c1ccc(F)cc1)C(=O)Nc1ccc(C#N)c(C(F)(F)F)c1 (centres undefined) [Bicalutamide] (1000 nM) | 104% | 116% | 103% | 101% | 115% | 95.5% | 103% | 137% | 97.5%
CC(O)(CS(=O)(=O)c1ccc(F)cc1)C(=O)Nc1ccc(C#N)c(C(F)(F)F)c1 (centres undefined) [Bicalutamide] (10000 nM) | 103% | 116% | 104% | 91.5% | 125% | 78.1% | 99% | – | 100%
CCNC(=O)CCC/C=C\C[C@@H]1[C@@H](/C=C/[C@@H](O)CCc2ccccc2)[C@H](O)C[C@@H]1O [Bimatoprost] (550 nM) | 98.5% | 73.3% | 97.2% | 97.1% | 88.8% | 67.2% | 99.3% | 69% | 103%
CCNC(=O)CCC/C=C\C[C@@H]1[C@@H](/C=C/[C@@H](O)CCc2ccccc2)[C@H](O)C[C@@H]1O [Bimatoprost] (5500 nM) | 57% | 121% | 99.7% | 102% | 110% | 77% | 98% | – | 97.4%
COc1cc(Nc2c(C#N)cnc3cc(OCCCN4CCN(C)CC4)c(OC)cc23)c(Cl)cc1Cl [Bosutinib] (1000 nM) | 94.2% | 106% | 101% | 100% | 93.6% | 107% | 114% | 164% | –
COc1cc(Nc2c(C#N)cnc3cc(OCCCN4CCN(C)CC4)c(OC)cc23)c(Cl)cc1Cl [Bosutinib] (10000 nM) | 19.3% | 33.1% | 86.5% | 62% | -62.9% | 25.9% | 34.6% | -35% | 81.3%
Cn1cc(C2=C(c3cn(C4CCN(Cc5ccccn5)CC4)c4ccccc34)C(=O)NC2=O)c2ccccc21 [Enzastaurin] (1000 nM) | 105% | 143% | 104% | 102% | 76.6% | 89.4% | 107% | 112% | 82%
Cn1cc(C2=C(c3cn(C4CCN(Cc5ccccn5)CC4)c4ccccc34)C(=O)NC2=O)c2ccccc21 [Enzastaurin] (10000 nM) | 95.5% | 94.8% | 111% | 120% | 113% | 94.4% | 108% | 138% | 100%
CC(C)(C)NC(=O)[C@H]1CC[C@H]2[C@@H]3CC[C@H]4NC(=O)C=C[C@]4(C)[C@H]3CC[C@]12C [Finasteride] (1000 nM) | 99.4% | 109% | 103% | 100% | 107% | 102% | 105% | 145% | 93.2%
CC(C)(C)NC(=O)[C@H]1CC[C@H]2[C@@H]3CC[C@H]4NC(=O)C=C[C@]4(C)[C@H]3CC[C@]12C [Finasteride] (10000 nM) | 100% | 98.9% | 102% | 97.7% | 113% | 101% | 85.4% | 174% | –
Nc1ccn([C@@H]2O[C@H](CO)[C@@H](O)C2(F)F)c(=O)n1 [Gemcitabine] (100 nM) | 98.1% | 95% | 98.8% | 87.5% | 101% | 58.6% | 110% | 28.4% | 101%

Structure (SMILES) | normalised response (BT-474) | normalised response (BT-549) | normalised response (DU-4475) | normalised response (HCC1599) | normalised response (MDA-MB-231) | normalised response (MDA-MB-436) | normalised response (MDA-MB-453) | normalised response (MDA-MB-468) | normalised response (MFM-223)
Nc1ccn([C@@H]2O[C@H](CO)[C@@H](O)C2(F)F)c(=O)n1 [Gemcitabine] (1000 nM) | 104% | 88.8% | 96.9% | 86.5% | 75.5% | 89.8% | 97.7% | 122% | 104%
CC(C)C[C@H](NC(=O)[C@@H](COC(C)(C)C)NC(=O)[C@H](Cc1ccc(O)cc1)NC(=O)[C@H](CO)NC(=O)[C@H](Cc1c[nH]c2ccccc12)NC(=O)[C@H](Cc1cnc[nH]1)NC(=O)[C@@H]1CCC(=O)N1)C(=O)N[C@@H](CCCNC(=N)N)C(=O)N1CCC[C@H]1C(=O)NNC(N)=O [Goserelin] (1000 nM) | 99.8% | 124% | 96.9% | 98.4% | – | 92.4% | 107% | 158% | 83.2%
CC(C)C[C@H](NC(=O)[C@@H](COC(C)(C)C)NC(=O)[C@H](Cc1ccc(O)cc1)NC(=O)[C@H](CO)NC(=O)[C@H](Cc1c[nH]c2ccccc12)NC(=O)[C@H](Cc1cnc[nH]1)NC(=O)[C@@H]1CCC(=O)N1)C(=O)N[C@@H](CCCNC(=N)N)C(=O)N1CCC[C@H]1C(=O)NNC(N)=O [Goserelin] (10000 nM) | 84.2% | 107% | 98.9% | 95.5% | 94.9% | 90.3% | 95% | 181% | –
CC(=O)[C@]1(O)Cc2c(O)c3c(c(O)c2[C@@H](O[C@H]2C[C@H](N)[C@H](O)[C@H](C)O2)C1)C(=O)c1ccccc1C3=O [Idarubicin] (100 nM) | 72.2% | 98.7% | 95.2% | 101% | 114% | 40.4% | 108% | 49.4% | 99.2%
CC(=O)[C@]1(O)Cc2c(O)c3c(c(O)c2[C@@H](O[C@H]2C[C@H](N)[C@H](O)[C@H](C)O2)C1)C(=O)c1ccccc1C3=O [Idarubicin] (1000 nM) | 65.2% | 84.2% | 81.7% | 109% | 77.7% | 83.7% | 106% | 18.9% | 37.8%
C/C(=C\c1csc(C)n1)[C@@H]1C[C@@H]2O[C@]2(C)CCC[C@H](C)[C@H](O)[C@@H](C)C(=O)C(C)(C)[C@@H](O)CC(=O)N1 [Ixabepilone] (100 nM) | 100% | 65.6% | 103% | 102% | 102% | 106% | 107% | 83% | 98.8%
C/C(=C\c1csc(C)n1)[C@@H]1C[C@@H]2O[C@]2(C)CCC[C@H](C)[C@H](O)[C@@H](C)C(=O)C(C)(C)[C@@H](O)CC(=O)N1 [Ixabepilone] (1000 nM) | 58.1% | 62.7% | 101% | 104% | 55% | 103% | 101% | 87.1% | 105%
C=CCn1c(=O)c2cnc(Nc3ccc(N4CCN(C)CC4)cc3)nc2n1-c1cccc(C(C)(C)O)n1 [MK1775] (1000 nM) | 68.6% | 74.9% | 87% | 67.4% | -98.4% | 29.9% | 93.3% | 56.5% | 68.5%
C=CCn1c(=O)c2cnc(Nc3ccc(N4CCN(C)CC4)cc3)nc2n1-c1cccc(C(C)(C)O)n1 [MK1775] (10000 nM) | 44.8% | 14.7% | 85.3% | 66.1% | -15.5% | 67.1% | 89.7% | 45% | 67.2%
CO[C@@H]1[C@H](N(C)C(=O)c2ccccc2)C[C@H]2O[C@]1(C)n1c3ccccc3c3c4c(c5c6ccccc6n2c5c31)C(=O)NC4 [Midostaurin] (1000 nM) | 83.7% | 54% | 87.7% | 74% | 61.2% | 77.3% | 107% | -9.58% | 78.8%
CO[C@@H]1[C@H](N(C)C(=O)c2ccccc2)C[C@H]2O[C@]1(C)n1c3ccccc3c3c4c(c5c6ccccc6n2c5c31)C(=O)NC4 [Midostaurin] (10000 nM) | 87.9% | 25.2% | 88.6% | 81.2% | 60.6% | 83.6% | 91.6% | 0.55% | 93.1%
CO[C@@]12[C@H](COC(N)=O)C3=C(C(=O)C(C)=C(N)C3=O)N1C[C@@H]1N[C@@H]12 [Mitomycin C] (1000 nM) | 94.9% | 123% | 94.7% | 98.1% | 97.1% | 78.8% | 100% | – | 101%
CO[C@@]12[C@H](COC(N)=O)C3=C(C(=O)C(C)=C(N)C3=O)N1C[C@@H]1N[C@@H]12 [Mitomycin C] (10000 nM) | 101% | 99.5% | 94.7% | 99.1% | 101% | 90.2% | 104% | 5.66% | –
CCNC(=O)c1noc(-c2cc(C(C)C)c(O)cc2O)c1-c1ccc(CN2CCOCC2)cc1 [NVP-AUY922] (100 nM) | 80% | 140% | 65.5% | 86.9% | 46.7% | 67.1% | 96.2% | 31.9% | 78.3%
CCNC(=O)c1noc(-c2cc(C(C)C)c(O)cc2O)c1-c1ccc(CN2CCOCC2)cc1 [NVP-AUY922] (1000 nM) | 55.9% | 117% | 72.5% | 97.9% | 52.9% | 107% | 89% | 112% | 98.3%
CC1(C)CCC(c2ccc(Cl)cc2)=C(CN2CCN(c3ccc(C(=O)NS(=O)(=O)c4ccc(N[C@H](CCN5CCOCC5)CSc5ccccc5)c(S(=O)(=O)C(F)(F)F)c4)cc3)CC2)C1 [Navitoclax] (1000 nM) | 89.1% | 95.6% | 90.2% | 89.8% | -19.3% | 101% | 99.8% | 84.7% | 95.8%
